From US20240091162A1, “COMPOSITIONS AND METHODS FOR TREATING DEPRESSION AND ANXIETY” (THE TRUSTEES OF COLUMBIA UNIVERSITY IN THE CITY OF NEW YORK, priority 2021, published 2024)

Columns and labels:
[1] = in vivo FLX pharmacokinetic study and in vivo imaging of model drug distribution after delivery by microburs; conditions: after delivery by MBs
[2] = release of nanoparticles / SSRI from microbur and mesoporous silica nanoparticles; type: physicochemical
[3] = in vivo

| SMILES | model drug distribution (in vivo imaging system) [1] | FLX release profile from MB ([2]; MB with different structures) | release of SSRI from MSN ([2]; from a 42 nm-sized MSN) | dispersion of FLX in the intestine [3] |
| --- | --- | --- | --- | --- |
| O=C1OC2(c3ccc(O)cc3Oc3cc(O)ccc32)c2ccccc21 [Fluorescein] | selective dispersion of drug in the gut |  |  |  |
| CNCCC(Oc1ccc(C(F)(F)F)cc1)c1ccccc1 (stereo not shown) [Fluoxetine, fluoxetine] |  | sustainable FLX release profile | controlled release | local dispersion of FLX on small intestine epithelium |
